This note sets out measurements from patent US12024546B2, “Peptides and anti-cancer compositions including thereof” (GWANGJU INSTITUTE OF SCIENCE AND TECHNOLOGY, priority 2022, dated 2024).

The test system of data set [1] is HCT116 cells. Nature of the data set: Wound healing assay (migration), HCT116 cells overexpressing dysadherin. Format: cell-based, human. Conditions: VS-4718 1 μM, 48-h incubation in serum-free media. As for the experimental part: (§1) FIGS. 16A-16G illustrate functional involvement of fibronectin/integrin/FAK axis in dysadherin-mediated protumor activity. (FIG. 16A) The number of viable cells was measured with an automated cell counter (Countess II, ThermoFisher Scientific, Waltham, MA, USA) at the indicated time points (n=3/group) in HCT116 cells overexpressing wildtype (full length) or mutant dysadherin. EV-transfected cells were used as controls. […] (FIG. 16B) To determine the effect of fibronectin and FAK signaling on cancer cell growth, dysadherin-OE or control cells were transfected with control siRNA (siCTRL) or siRNAs targeting fibronectin (siFN1). At 24 h after transfection, cells were detached, reseeded, and incubated for 12 h for cell attachment. […] The relative cell numbers were determined by MTT assays (n=3/group). […] The black dotted line indicates initial wound area, and the blue line indicates the cell boundaries determined after a 48-h incubation in serum-free media. […] After a 24-h incubation, the cells that invaded through to the bottom of the membrane were fixed, stained with crystal violet, and counted under a phase-contrast microscope (n=3/group). […]
Cells were seeded in culture inserts (Ibidi, GmbH, Martinsried, Germany). […] The wound area at time zero or the endpoint was measured using Image-Pro Premier 9.2. The area of wound closure was calculated as a percentage of the initial wound area. […]

The next data set addresses T1, FAK (Homo sapiens, UniProt Q05397).
T1 construct: endogenous in cells; host or cells: Human CRC cells
Nature of the data set: Immunoblot of FAK activation status (p-FAK). Format: cell-based. As for the experimental part: as §1
Tissues or cells were homogenized in RIPA buffer for 20 min on ice. Protein concentrations were determined based on bicinchoninic acid (BCA) assay using the BCA Protein Assay kit (Thermo Fisher Scientific, Waltham, MA, USA). […]
(Immunoblotting shows a protein as a band on a membrane.)

For data set [2], the system named is HCT116 cells. Nature of the data set: Clonogenic assay (survival potential), HCT116 cells overexpressing dysadherin. It counts as cell-based, human. The following applies: VS-4718 3 μmol/L for 24 h, then clonogenic assay. As for the experimental part: as §1
A clonogenic assay was performed as cells were seeded in 12-well plates (200 cells/well) and cultured for 14 days. The numbers of colonies greater than 50 μm in size were counted after staining with crystal violet (n=3/group).

In data set [3] the test system is dysadherin-OE HCT116 cells. Nature of the data set: Cell growth by MTT assay, dysadherin-OE HCT116 cells. Format: cell-based, human. Conditions: VS-4718 3 μM, 36 h. As for the experimental part:
(§2) FIGS. 16A-16G illustrate functional involvement of fibronectin/integrin/FAK axis in dysadherin-mediated protumor activity. (FIG. 16A) The number of viable cells was measured with an automated cell counter (Countess II, ThermoFisher Scientific, Waltham, MA, USA) at the indicated time points (n=3/group) in HCT116 cells overexpressing wildtype (full length) or mutant dysadherin. EV-transfected cells were used as controls. […] (FIG. 16B) To determine the effect of fibronectin and FAK signaling on cancer cell growth, dysadherin-OE or control cells were transfected with control siRNA (siCTRL) or siRNAs targeting fibronectin (siFN1). At 24 h after transfection, cells were detached, reseeded, and incubated for 12 h for cell attachment. Then cells were incubated for 36 h with or without FAK inhibitor treatment (VS-4718, 3 μM). The relative cell numbers were determined by MTT assays (n=3/group). […] Cells were seeded on fibronectin-coated culture plates with or without VS-4718, at 1 or 3 μM. […] The black dotted line indicates initial wound area, and the blue line indicates the cell boundaries determined after a 48-h incubation in serum-free media. […] After a 24-h incubation, the cells that invaded through to the bottom of the membrane were fixed, stained with crystal violet, and counted under a phase-contrast microscope (n=3/group). […]
A general note: Tetrazolium dyes change colour on reduction, which living cells bring about.

The next data set concerns wild-type HCT116 cells. The experiment in a line: Cell growth by MTT assay, wild-type HCT116 cells. Format: cell-based, human. Conditions: VS-4718 3 μM, 36 h. As for the experimental part: as §2
Data set [4] concerns HCT116 cells. The experiment in a line: Boyden chamber assay (invasion), HCT116 cells overexpressing dysadherin. The following applies: FAK inhibitor 3 μmol/L, 24-h incubation, serum-free media. It counts as cell-based, human. As for the experimental part: as §1, with “(siFN1).” for “(siFN1). At 24 h after transfection, cells were detached, reseeded, and incubated for 12 h for cell attachment.”
The Transwell system (8 μm pore size, Corning) was employed for migration and invasion assays. […] After incubation for 24 h at 37° C., the cells that migrated or invaded the Matrigel through to the bottom of the insert membrane were fixed, stained with crystal violet, and counted under a phase-contrast microscope (Carl Zeiss, biological triplicates).

For a further data set, the system named is SW480 cells. Nature of the data set: Cell viability by MTT assay, SW480 cells. Format: cell-based, human. The following applies: MTT assay at 48 hours after peptide treatment. As for the experimental part: (§3) FIGS. 13C-13D illustrate cell viability were measured by an MTT assay at 48 hours after the treatment of annotated peptide in SW480 cells with and without KO of dysadherin.
(§4) Cells were seeded in 6-well or 96-well plates and incubated for various time points. The numbers of viable cells were measured with an automated cell counter (Countess II, ThermoFisher Scientific, Waltham, MA, USA) or measured by staining with thiazolyl blue tetrazolium bromide (MTT, Sigma-Aldrich, St. Louis, MO, USA), and the absorbance was measured using a microplate spectrophotometer (Bio-Tek Instruments Inc., Winooski, VT, USA).

For data set [5], the system named is fibronectin. The experiment in a line: Pull-down assay of His-tagged synthesized peptides with purified fibronectin. Format: binding. The following applies: His-tagged peptide 20 μg, purified fibronectin 0.5 μg, Ni-NTA agarose beads, Coomassie staining. The source says:
FIG. 13B illustrates pull-down assay using purified fibronectin and purified His-tagged synthesized peptides to determine the specific sequence with fibronectin-binding activity.
The coding sequences of wild-type or mutant forms of dysadherin were synthesized and cloned into pET151/DTOPO vector by Thermo Fisher Scientific. OE of His-tagged dysadherin was achieved using E. coli grown in Luria-Bertani (LB) broth medium, supplemented with ampicillin. Isopropyl β-D-1-thiogalactopyranoside (IPTG, 0.5 mM) was added into the LB broth medium to induce the expression of the protein of interest, and the mixture was incubated for 5 h at 37° C. The cells were then lysed using RIPA buffer and purified using a Ni-NTA column (R90101, Thermo Fisher Scientific). The concentrated purified protein was measured using the BCA Protein Assay kit (Thermo Fisher Scientific). […] Presence of His-tagged dysadherin and fibronectin proteins were determined by immunoblot analysis using anti-His rabbit monoclonal antibody (#12698, Cell Signaling Technology) and anti-fibronectin rabbit polyclonal antibody (ab2413, Abcam, Cambridge, MA, USA). […] The purity of each peptide was determined to be over 95% by LC-MS. […] The presence of His-tagged dysadherin, dysadherin peptides, and fibronectin was determined by staining with Coomassie Brilliant Blue.

In data set [6] the test system is dysadherin KO SW480 cells. The experiment in a line: Cell viability by MTT assay, dysadherin KO SW480 cells. The following applies: MTT assay at 48 hours after peptide treatment. It counts as cell-based, human. As for the experimental part: as §3
A dysadherin-KO (FXYD5^−/−) SW480 cell line was generated by Transomic Technologies (Huntsville, AL, USA). Specific gRNA targeting different regions of the human FXYD5 gene was designed and cloned into the pCLIPAll (EFS-Puro) expression vector. SW480 cells were infected with lentiviral particles and selected with puromycin for 1 week. Dilution cloning was performed to obtain different monoclonal cell populations. […] For establishment of the dysadherin-OE cell line, HCT116 cells were transfected with dysadherin expression vector (pcDNA-L3HSV) and selected with G418 for 1 week. Dilution cloning was performed and OE of the dysadherin gene was confirmed by RT-qPCR and immunoblot analysis. […]
as §4

Data set [7] concerns the target T2, fibronectin (Homo sapiens, UniProt P02751).
T2 construct: purchased Sigma Aldrich
The experiment in a line: Pull-down assay of purified His-tagged dysadherin proteins with purified fibronectin protein. Format: binding. Conditions: purified His-tagged dysadherin proteins 1 μg, purified fibronectin 0.5 μg, anti-His antibody, immunoblot. An excerpt: FIGS. […] illustrate the extracellular domain of dysadherin directly binds fibronectin. (FIG. 12A) Co-IP with anti-dysadherin antibody (M53) and subsequent immunoblot analyses validate the binding of dysadherin to endogenous fibronectin in CRC cells. (FIG. 12B) Co-IP with M53 and subsequent immunoblot analyses confirm that the quantity of dysadherin-bound fibronectin is decreased by dysadherin KO but increased by dysadherin OE. (FIG. 12C) Whole-protein lysates and membrane fractions were extracted from cells at the indicated time points. Culture media were collected and applied to dot blot assays to compare the quantities of secreted fibronectin. […]
The coding sequences of wild-type or mutant forms of dysadherin were synthesized and cloned into pET151/DTOPO vector by Thermo Fisher Scientific. […] The concentrated purified protein was measured using the BCA Protein Assay kit (Thermo Fisher Scientific). […] Presence of His-tagged dysadherin and fibronectin proteins were determined by immunoblot analysis using anti-His rabbit monoclonal antibody (#12698, Cell Signaling Technology) and anti-fibronectin rabbit polyclonal antibody (ab2413, Abcam, Cambridge, MA, USA). […] The purity of each peptide was determined to be over 95% by LC-MS. […] The presence of His-tagged dysadherin, dysadherin peptides, and fibronectin was determined by staining with Coomassie Brilliant Blue.

T1 sequence (Q05397 whole entry): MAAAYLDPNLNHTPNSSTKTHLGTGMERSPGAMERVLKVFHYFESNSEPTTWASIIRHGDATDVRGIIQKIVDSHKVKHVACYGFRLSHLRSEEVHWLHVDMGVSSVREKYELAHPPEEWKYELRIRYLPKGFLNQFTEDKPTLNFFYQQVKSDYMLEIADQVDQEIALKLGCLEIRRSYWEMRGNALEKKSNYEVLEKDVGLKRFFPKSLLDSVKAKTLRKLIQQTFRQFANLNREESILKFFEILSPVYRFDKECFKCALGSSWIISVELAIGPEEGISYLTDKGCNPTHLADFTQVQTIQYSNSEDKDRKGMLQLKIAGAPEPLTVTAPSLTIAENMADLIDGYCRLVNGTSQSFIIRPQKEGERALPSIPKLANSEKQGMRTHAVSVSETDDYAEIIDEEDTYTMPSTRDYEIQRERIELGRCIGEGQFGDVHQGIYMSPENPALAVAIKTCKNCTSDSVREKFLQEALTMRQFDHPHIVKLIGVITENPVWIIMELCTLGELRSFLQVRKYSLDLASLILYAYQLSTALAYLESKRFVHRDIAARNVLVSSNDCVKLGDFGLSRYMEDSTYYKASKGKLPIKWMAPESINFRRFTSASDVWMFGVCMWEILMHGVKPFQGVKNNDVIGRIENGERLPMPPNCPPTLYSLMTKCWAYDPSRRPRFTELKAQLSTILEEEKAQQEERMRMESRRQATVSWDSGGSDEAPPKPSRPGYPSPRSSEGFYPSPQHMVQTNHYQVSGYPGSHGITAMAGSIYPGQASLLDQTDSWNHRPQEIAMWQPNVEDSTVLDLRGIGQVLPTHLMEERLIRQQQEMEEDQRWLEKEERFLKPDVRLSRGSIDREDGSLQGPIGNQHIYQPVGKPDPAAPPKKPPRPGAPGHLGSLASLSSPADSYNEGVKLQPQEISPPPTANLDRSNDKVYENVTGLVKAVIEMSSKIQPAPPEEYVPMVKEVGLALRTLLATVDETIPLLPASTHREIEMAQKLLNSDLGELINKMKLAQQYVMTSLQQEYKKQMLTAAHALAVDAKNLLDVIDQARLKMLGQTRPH
T2 sequence (P02751 32-2477, species assumed): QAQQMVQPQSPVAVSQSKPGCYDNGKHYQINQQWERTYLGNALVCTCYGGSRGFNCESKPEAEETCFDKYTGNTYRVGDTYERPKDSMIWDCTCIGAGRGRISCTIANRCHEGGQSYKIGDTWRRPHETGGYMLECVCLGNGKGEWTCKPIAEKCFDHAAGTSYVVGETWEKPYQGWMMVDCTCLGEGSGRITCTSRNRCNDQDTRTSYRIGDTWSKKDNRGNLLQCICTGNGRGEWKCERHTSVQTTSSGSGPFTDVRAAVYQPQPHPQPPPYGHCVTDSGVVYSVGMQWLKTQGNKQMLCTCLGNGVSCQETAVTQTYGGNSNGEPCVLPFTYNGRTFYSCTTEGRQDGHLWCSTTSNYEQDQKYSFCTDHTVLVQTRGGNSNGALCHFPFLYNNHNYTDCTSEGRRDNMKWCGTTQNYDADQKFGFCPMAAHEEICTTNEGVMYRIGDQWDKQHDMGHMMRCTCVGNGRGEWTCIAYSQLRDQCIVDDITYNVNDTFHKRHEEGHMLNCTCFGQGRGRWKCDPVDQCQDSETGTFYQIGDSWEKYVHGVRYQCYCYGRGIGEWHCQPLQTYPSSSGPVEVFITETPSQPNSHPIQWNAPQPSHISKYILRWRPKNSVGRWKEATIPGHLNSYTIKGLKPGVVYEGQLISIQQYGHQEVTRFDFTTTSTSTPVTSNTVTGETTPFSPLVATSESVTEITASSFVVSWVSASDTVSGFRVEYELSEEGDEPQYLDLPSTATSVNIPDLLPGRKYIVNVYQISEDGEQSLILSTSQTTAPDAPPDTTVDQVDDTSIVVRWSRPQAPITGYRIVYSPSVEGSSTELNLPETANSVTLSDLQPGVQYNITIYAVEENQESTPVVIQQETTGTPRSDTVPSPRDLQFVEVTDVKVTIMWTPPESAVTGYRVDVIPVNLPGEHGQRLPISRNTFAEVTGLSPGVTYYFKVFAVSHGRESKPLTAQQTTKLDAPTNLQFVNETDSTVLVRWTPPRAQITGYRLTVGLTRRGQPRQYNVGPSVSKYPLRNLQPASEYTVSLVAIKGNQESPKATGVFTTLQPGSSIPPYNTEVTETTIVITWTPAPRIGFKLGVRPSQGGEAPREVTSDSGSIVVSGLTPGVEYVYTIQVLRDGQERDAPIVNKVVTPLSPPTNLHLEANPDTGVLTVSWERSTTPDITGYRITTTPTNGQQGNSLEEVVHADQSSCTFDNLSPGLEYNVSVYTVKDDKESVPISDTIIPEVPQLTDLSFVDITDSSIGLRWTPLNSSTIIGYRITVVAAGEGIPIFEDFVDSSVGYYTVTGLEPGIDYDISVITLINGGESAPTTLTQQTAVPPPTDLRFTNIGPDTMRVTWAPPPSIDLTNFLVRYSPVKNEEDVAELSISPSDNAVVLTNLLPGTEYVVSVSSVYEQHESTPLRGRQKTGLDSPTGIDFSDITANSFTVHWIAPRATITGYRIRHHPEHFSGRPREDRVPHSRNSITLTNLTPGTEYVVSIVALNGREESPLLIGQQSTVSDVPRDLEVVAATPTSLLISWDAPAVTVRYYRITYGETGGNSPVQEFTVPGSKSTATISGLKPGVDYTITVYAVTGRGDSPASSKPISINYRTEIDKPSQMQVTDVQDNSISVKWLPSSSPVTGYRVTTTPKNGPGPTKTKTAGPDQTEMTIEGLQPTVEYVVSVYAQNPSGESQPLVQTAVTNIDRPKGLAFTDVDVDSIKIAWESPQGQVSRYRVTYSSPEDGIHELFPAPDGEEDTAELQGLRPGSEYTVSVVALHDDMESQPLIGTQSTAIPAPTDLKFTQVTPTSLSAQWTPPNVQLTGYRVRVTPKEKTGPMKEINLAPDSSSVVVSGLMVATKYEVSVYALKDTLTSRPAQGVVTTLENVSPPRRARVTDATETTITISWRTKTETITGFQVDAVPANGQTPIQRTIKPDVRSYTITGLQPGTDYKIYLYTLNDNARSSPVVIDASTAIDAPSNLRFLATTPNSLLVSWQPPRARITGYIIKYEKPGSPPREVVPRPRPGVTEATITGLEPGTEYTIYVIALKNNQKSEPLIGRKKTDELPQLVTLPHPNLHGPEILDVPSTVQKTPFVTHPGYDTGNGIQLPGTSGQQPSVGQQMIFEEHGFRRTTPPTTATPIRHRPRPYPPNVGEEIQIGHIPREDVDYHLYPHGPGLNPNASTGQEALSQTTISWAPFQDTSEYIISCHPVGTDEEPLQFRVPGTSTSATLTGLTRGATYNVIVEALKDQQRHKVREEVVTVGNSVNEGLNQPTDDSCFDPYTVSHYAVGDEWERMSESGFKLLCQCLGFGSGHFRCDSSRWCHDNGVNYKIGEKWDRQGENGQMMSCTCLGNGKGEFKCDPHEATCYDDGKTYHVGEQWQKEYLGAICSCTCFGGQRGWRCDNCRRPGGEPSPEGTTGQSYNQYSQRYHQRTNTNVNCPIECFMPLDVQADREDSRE

As for `CNC(=O)c1ccccc1Nc1cc(Nc2ccc(N3CCOCC3)cc2OC)ncc1C(F)(F)F` [VS-4718], the “dysadherin-induced increase in CRC migration” value with HCT116 cells [1] is “attenuated”. Besides, the “fibronectin-induced FAK activation” value at FAK (cells on fibronectin-coated plates, VS-4718 at 1 or 3 μM, 4 h) is reported as “inhibitory effects”. For the same molecule, the “basal p-FAK levels” value at FAK (treatment with VS-4718, FIG. 16C) is “diminished basal p-FAK levels”. Also, the “dysadherin-induced increase in CRC survival” value with HCT116 cells [2] is listed as “attenuated”. Also, in [3], the “dysadherin-induced CRC growth” value is “diminished dysadherin-induced CRC growth”. The “growth of wild-type HCT116 cells” value in the data set with wild-type HCT116 cells is “attenuated the growth of wild-type HCT116 cells”. The “dysadherin-induced increase in CRC invasion” value in the data set on HCT116 cells [4] was “attenuated”.

Take “KAAHPTDDTTTLSERPSPST (listed as Homo sapiens) [N #4]”: the “cytotoxicity against SW480 cells” value in the data set with SW480 cells was “selective cytotoxicity”. For the same molecule, in the data set with fibronectin [5], the fibronectin-binding activity result is given as “displayed fibronectin-binding activity”. In addition, the “effect against dysadherin KO SW480 cells” value in data set [6] is “limited effect”.

“PADETPQPQTQTQQLEGTDGP (listed as Homo sapiens) [N #3]”: in the data set with SW480 cells, the “cytotoxicity against SW480 cells” value was “selective cytotoxicity”. Besides, in the data set with fibronectin [5], the fibronectin-binding activity entry is on record as “displayed fibronectin-binding activity”. The “effect against dysadherin KO SW480 cells” value in data set [6] is “limited effect”.

B1: dysadherin: purified recombinant His-tagged dysadherin protein, full-length (wild-type), from E. coli (protein)
chain: QTLKDTTSSSSADSTIMDIQVPTRAPDAVYTELQPTSPTPTWPADETPQPQTQTQQLEGTDGPLVTDPETHKSTKAAHPTDDTTTLSERPSPSTDVQTDPQTLKPSGFHEDDPFFYDEHTLRKRGLLVAAVLFITGIIILTSGKCRQLSRLCRNRCR
Take B1: the binding to fibronectin result in the data set with fibronectin [7] is “direct binding”.
